Experimental data published in patent US20240209028A1, “CNP COMPOUNDS” (priority 2022, published 2024).
Starred links: 1 amine or outer side, 2 acyl side, 3 side chain; linkers in the order of their positions; H or OH if unused. Positions of bridges follow the written chain, without caps; N, C: chain ends. Residues, ends and D or L forms follow the SMILES beside them. *: point of attachment. C18 diacid = O=C(O)CCCCCCCCCCCCCCCCC(=O)*; γGlu = O=C(O)[C@H](CCC(=O)[*:2])N[*:1]; AEEA = NCCOCCOCC(=O)O

These compounds were tested against T1, human natriuretic peptide receptor 2 (hNPR2) (Homo sapiens, UniProt P20594) (assay: In vitro hNPR2 activity assay (cGMP GloSensor reporter, HEK293)). Conditions: potency relative to CNP22 (0065).
T1 construct: expressed in transfected cells; host or cells: HEK293 (ATCC CRL-1573), clone 35, co-transfected with pGloSensor-42F
T1 sequence (P20594 23-1047): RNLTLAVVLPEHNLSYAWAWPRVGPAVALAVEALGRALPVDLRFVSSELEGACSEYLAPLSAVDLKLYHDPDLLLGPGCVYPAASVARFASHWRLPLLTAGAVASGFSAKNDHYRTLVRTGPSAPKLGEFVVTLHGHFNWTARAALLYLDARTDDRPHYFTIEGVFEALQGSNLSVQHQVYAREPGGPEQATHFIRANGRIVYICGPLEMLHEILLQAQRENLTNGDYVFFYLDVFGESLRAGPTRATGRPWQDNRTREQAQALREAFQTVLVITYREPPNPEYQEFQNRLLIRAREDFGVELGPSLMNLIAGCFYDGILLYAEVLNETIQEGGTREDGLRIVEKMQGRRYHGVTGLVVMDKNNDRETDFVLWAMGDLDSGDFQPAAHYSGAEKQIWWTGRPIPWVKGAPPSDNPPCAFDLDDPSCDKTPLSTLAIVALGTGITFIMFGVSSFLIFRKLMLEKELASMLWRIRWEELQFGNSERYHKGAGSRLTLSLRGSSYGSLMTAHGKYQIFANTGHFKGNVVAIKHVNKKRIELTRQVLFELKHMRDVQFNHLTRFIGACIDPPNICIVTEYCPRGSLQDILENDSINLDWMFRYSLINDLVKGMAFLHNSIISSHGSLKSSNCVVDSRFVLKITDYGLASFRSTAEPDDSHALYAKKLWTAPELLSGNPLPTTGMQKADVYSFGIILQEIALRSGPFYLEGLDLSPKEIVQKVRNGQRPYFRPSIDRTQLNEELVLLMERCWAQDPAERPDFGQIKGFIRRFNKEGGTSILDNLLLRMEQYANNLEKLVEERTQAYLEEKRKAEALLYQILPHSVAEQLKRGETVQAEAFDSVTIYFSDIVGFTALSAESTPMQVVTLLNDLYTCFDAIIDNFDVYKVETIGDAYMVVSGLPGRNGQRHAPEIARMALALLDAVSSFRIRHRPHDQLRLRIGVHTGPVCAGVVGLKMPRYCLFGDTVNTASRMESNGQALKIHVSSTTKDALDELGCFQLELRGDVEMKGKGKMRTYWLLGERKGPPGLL
Assay type: cell-based
Method in brief: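 Potency is the EC50 from a four-parameter logistic fit, also expressed relative to the in-plate CNP22 control (×100), with at least two replicates. Compounds (ten concentrations, […], HSA-free diluent with 1% OVA, 0.01% Tween20) were incubated 30 min at 37 °C on HEK293 cells co-expressing hNPR2 and a GloSensor cGMP luciferase. Luminescence detected with Bright-Glo.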

Going from CC[C@H](C)[C@@H]1NC(=O)[C@H](CCCNC(=N)N)NC(=O)[C@H](CC(=O)O)NC(=O)[C@H](CC(C)C)NC(=O)[C@@H]2CCCN2C(=O)[C@H](CC(C)C)NC(=O)CNC(=O)[C@H](Cc2ccccc2)NC(=O)[C@@H](NC(=O)CNC(=O)[C@H](CCC(N)=O)NC(=O)[C@H](CO)NC(=O)[C@@H](NC(=O)CNC(=O)[C@H](CCCCN)NC(=O)[C@H](CCCCN)NC(=O)[C@H](CCC(N)=O)NC(=O)[C@H](C)NC(=O)CNC(=O)[C@H](CCCCN)NC(=O)[C@H](Cc2ccc(O)cc2)NC(=O)COCCOCCNC(=O)COCCOCCNC(=O)COCCOCCNC(=O)COCCOCCNC(=O)CC[C@H](NC(=O)CC[C@H](NC(=O)CCCCCCCCCCCCCCCCC(=O)O)C(=O)O)C(=O)O)C(C)C)CSSC[C@@H](C(=O)O)NC(=O)CNC(=O)[C@H](CC(C)C)NC(=O)CNC(=O)[C@H](CO)NC(=O)[C@H](CC(C)C)NC(=O)[C@H](CO)NC(=O)CNC1=O [compound 1436] ({C18 diacid-γGlu-γGlu-AEEA-AEEA-AEEA-AEEA}-YKGAQKKGVSQGCFGLPLDRIGSLSGLGC-OH; disulfide 13-29; C-terminus assumed) to CC[C@H](C)[C@@H]1NC(=O)[C@H](CCCNC(=N)N)NC(=O)[C@H](CC(=O)O)NC(=O)[C@H](CC(C)C)NC(=O)[C@@H]2CCCN2C(=O)[C@H](CC(C)C)NC(=O)CNC(=O)[C@H](Cc2ccccc2)NC(=O)[C@@H](NC(=O)CNC(=O)[C@H](CCC(N)=O)NC(=O)[C@H](CO)NC(=O)[C@@H](NC(=O)CNC(=O)[C@H](CCCCN)NC(=O)[C@H](CCCCN)NC(=O)[C@H](CCC(N)=O)NC(=O)[C@H](C)NC(=O)CNC(=O)[C@H](Cc2c[nH]cn2)NC(=O)[C@H](Cc2ccc(O)cc2)NC(=O)COCCOCCNC(=O)COCCOCCNC(=O)COCCOCCNC(=O)COCCOCCNC(=O)CC[C@H](NC(=O)CC[C@H](NC(=O)CCCCCCCCCCCCCCCCC(=O)O)C(=O)O)C(=O)O)C(C)C)CSSC[C@@H](C(=O)O)NC(=O)CNC(=O)[C@H](CC(C)C)NC(=O)CNC(=O)[C@H](CO)NC(=O)[C@H](CC(C)C)NC(=O)[C@H](CO)NC(=O)CNC1=O [compound 1437] ({C18 diacid-γGlu-γGlu-AEEA-AEEA-AEEA-AEEA}-YHGAQKKGVSQGCFGLPLDRIGSLSGLGC-OH; disulfide 13-29), the “hNPR2 0% HSA. [EC50% rel CNP]” value falls from 30.2% to 19.9%.

Compared with CC[C@H](C)[C@@H]1NC(=O)[C@H](CCCNC(=N)N)NC(=O)[C@H](CC(=O)O)NC(=O)[C@H](CC(C)C)NC(=O)[C@@H]2CCCN2C(=O)[C@H](CC(C)C)NC(=O)CNC(=O)[C@H](Cc2ccccc2)NC(=O)[C@@H](NC(=O)CNC(=O)[C@H](CCCCN)NC(=O)[C@H](CO)NC(=O)[C@H](CC(C)C)NC(=O)CNC(=O)[C@H](CCCCN)NC(=O)[C@H](CCCCN)NC(=O)[C@H](CCC(N)=O)NC(=O)[C@H](C)NC(=O)CNC(=O)[C@H](CCC(=O)O)NC(=O)[C@H](Cc2ccc(O)cc2)NC(=O)[C@H](CCCCN)NC(=O)[C@H](CCCNC(=N)N)NC(=O)[C@H](C)NC(=O)[C@H](CCC(N)=O)NC(=O)[C@@H]2CCCN2C(=O)[C@H](Cc2c[nH]cn2)NC(=O)[C@H](CCC(=O)O)NC(=O)[C@H](CCC(N)=O)NC(=O)CC[C@H](NC(=O)CC[C@H](NC(=O)CC[C@H](NC(=O)CC[C@H](NC(=O)CCCCCCCCCCCCCCCCC(=O)O)C(=O)O)C(=O)O)C(=O)O)C(=O)O)CSSC[C@@H](C(=O)O)NC(=O)CNC(=O)[C@H](CC(C)C)NC(=O)CNC(=O)[C@H](CO)NC(=O)[C@H](CC(C)C)NC(=O)[C@H](CO)NC(=O)CNC1=O [compound 1448] ({C18 diacid-γGlu-γGlu-γGlu-γGlu}-QEHPQARKYEGAQKKGLSKGCFGLPLDRIGSLSGLGC-OH; disulfide 21-37), CC[C@H](C)[C@@H]1NC(=O)[C@H](CCCNC(=N)N)NC(=O)[C@H](CCC(=O)O)NC(=O)[C@H](CC(C)C)NC(=O)[C@@H]2CCCN2C(=O)[C@H](CC(C)C)NC(=O)CNC(=O)[C@H](Cc2ccccc2)NC(=O)[C@@H](NC(=O)CNC(=O)[C@H](CO)NC(=O)[C@H](CO)NC(=O)[C@@H](NC(=O)CNC(=O)[C@H](CCCCN)NC(=O)[C@H](CCCCN)NC(=O)[C@H](CCC(N)=O)NC(=O)[C@H](C)NC(=O)CNC(=O)[C@H](Cc2c[nH]cn2)NC(=O)[C@H](Cc2ccc(O)cc2)NC(=O)[C@H](CCCCN)NC(=O)[C@H](CCCNC(=N)N)NC(=O)[C@H](C)NC(=O)COCCOCCNC(=O)COCCOCCNC(=O)CC[C@H](NC(=O)CC[C@H](NC(=O)CC[C@H](NC(=O)CCCCCCCCCCCCCCCCC(=O)O)C(=O)O)C(=O)O)C(=O)O)C(C)C)CSSC[C@@H](C(=O)O)NC(=O)CNC(=O)[C@H](CC(C)C)NC(=O)CNC(=O)[C@H](CO)NC(=O)[C@H](CC(C)C)NC(=O)[C@H](CO)NC(=O)CNC1=O [compound 1451] ({C18 diacid-γGlu-γGlu-γGlu-AEEA-AEEA}-ARKYHGAQKKGVSSGCFGLPLERIGSLSGLGC-OH; disulfide 16-32) is higher in “hNPR2 0% HSA. [EC50% rel CNP]” value: 33.3% for the first, 47.5% for the second.

Compared with CC[C@H](C)[C@@H]1NC(=O)[C@H](CCCNC(=N)N)NC(=O)[C@H](CC(=O)O)NC(=O)[C@H](CC(C)C)NC(=O)[C@@H]2CCCN2C(=O)[C@H](CC(C)C)NC(=O)CNC(=O)[C@H](Cc2ccccc2)NC(=O)[C@@H](NC(=O)CNC(=O)[C@H](CO)NC(=O)[C@H](CO)NC(=O)[C@@H](NC(=O)CNC(=O)[C@@H](NC(=O)[C@H](Cc2c[nH]cn2)NC(=O)[C@H](CCC(N)=O)NC(=O)[C@H](C)NC(=O)CNC(=O)[C@H](Cc2c[nH]cn2)NC(=O)[C@H](Cc2ccc(O)cc2)NC(=O)[C@H](CCCCN)NC(=O)[C@H](CCCNC(=N)N)NC(=O)[C@H](C)NC(=O)COCCOCCNC(=O)COCCOCCNC(=O)CC[C@H](NC(=O)CC[C@H](NC(=O)CC[C@H](NC(=O)CCCCCCCCCCCCCCCCC(=O)O)C(=O)O)C(=O)O)C(=O)O)[C@@H](C)O)C(C)C)CSSC[C@@H](C(=O)O)NC(=O)CNC(=O)[C@H](CC(C)C)NC(=O)CNC(=O)[C@H](CO)NC(=O)[C@H](CC(C)C)NC(=O)[C@H](CO)NC(=O)CNC1=O [compound 1449] ({C18 diacid-γGlu-γGlu-γGlu-AEEA-AEEA}-ARKYHGAQHTGVSSGCFGLPLDRIGSLSGLGC-OH; disulfide 16-32; C-terminus assumed), CC[C@H](C)[C@@H]1NC(=O)[C@H](CCCNC(=N)N)NC(=O)[C@H](CC(=O)O)NC(=O)[C@H](CC(C)C)NC(=O)[C@@H]2CCCN2C(=O)[C@H](CC(C)C)NC(=O)CNC(=O)[C@H](Cc2ccccc2)NC(=O)[C@@H](NC(=O)CNC(=O)[C@H](CO)NC(=O)[C@H](CO)NC(=O)[C@@H](NC(=O)CNC(=O)[C@@H](NC(=O)[C@H](CCCCN)NC(=O)[C@H](CCC(N)=O)NC(=O)[C@H](C)NC(=O)CNC(=O)[C@H](Cc2c[nH]cn2)NC(=O)[C@H](Cc2ccc(O)cc2)NC(=O)[C@H](CCCCN)NC(=O)[C@H](CCCNC(=N)N)NC(=O)[C@H](C)NC(=O)COCCOCCNC(=O)COCCOCCNC(=O)CC[C@H](NC(=O)CC[C@H](NC(=O)CC[C@H](NC(=O)CCCCCCCCCCCCCCCCC(=O)O)C(=O)O)C(=O)O)C(=O)O)[C@@H](C)O)C(C)C)CSSC[C@@H](C(=O)O)NC(=O)CNC(=O)[C@H](CC(C)C)NC(=O)CNC(=O)[C@H](CO)NC(=O)[C@H](CC(C)C)NC(=O)[C@H](CO)NC(=O)CNC1=O [compound 1450] ({C18 diacid-γGlu-γGlu-γGlu-AEEA-AEEA}-ARKYHGAQKTGVSSGCFGLPLDRIGSLSGLGC-OH; disulfide 16-32) is lower in “hNPR2 0% HSA. [EC50% rel CNP]” value: 110.0% for the first, 84.2% for the second.
